Source: ChEMBL document CHEMBL3271937, “Isoquinolines. 6. Potential central nervous system antitumor agents. Nitrogen mustards of 3-amino-4-(p-aminophenyl)isoquinoline” (J Med Chem, 1977)
One block for each compound: values may come before it. Activity calls are given as the source filed them. The rule behind the calls is not given here.

Columns and labels:
[1] = test system: L1210; test: Antitumor activity against mouse L1210 cells allografted in mouse assessed as tumor growth inhibition at 400 mg/kg, ip; assay type: functional, organism-based; parameters: dose 400 mg/kg
[2] = test system: Mus musculus; test: Toxicity in mouse allografted with mouse L1210 cells at 25 to 400 mg/kg, ip; assay type: organism-based; parameters: dose 25-400 mg/kg, route intraperitoneal; details: in vivo
[3] = Octanol-water partition coefficient, log P of the compound; assay type: physicochemical
[4] = test system: Mus musculus; test: Toxicity in mouse allografted with mouse L1210 cells at 200 mg/kg, ip; assay type: organism-based; parameters: dose 200 mg/kg, route intraperitoneal; details: in vivo

Compound: Nc1ncc2ccccc2c1-c1ccc(NC(=O)CN(CCCl)CCCl)cc1
TGI [1]: inactive | Activity [2]: Non-toxic

Compound: CC(=O)Nc1ncc2ccccc2c1-c1ccc(N(CCCl)CCCl)cc1
TGI [1]: inactive | Activity [2]: Non-toxic

Compound: CC(=O)Nc1ncc2ccccc2c1-c1ccc(NC(=O)CN(CCCl)CCCl)cc1
TGI [1]: inactive | Activity [2]: Non-toxic | logP [3]: 3.87

Compound: CCNc1ncc2ccccc2c1-c1ccc(NC(=O)CCN(CCCl)CCCl)cc1.Cl
TGI [1]: inactive | Activity [4]: Toxic | logP [3]: 7.43

Compound: CC(=O)Nc1nc(Br)c2ccccc2c1-c1ccc(N(CCCl)CCCl)cc1.Cl
TGI [1]: inactive | Activity [2]: Non-toxic

Compound: CC(=O)Nc1ncc2ccccc2c1-c1ccc(NC(=O)CCN(CCCl)CCCl)cc1
TGI [1]: inactive | Activity [2]: Non-toxic

logP [3]: 2.58
Compound: Nc1ccc(-c2c(N)ncc3ccccc23)cc1
